Data reported in US20230146455A1, “TREATMENT OF INFLAMMATORY DISEASES WITH PEPTIDES AND PHARMACEUTICAL COMPOSITIONS” (Yuyu Pharma, Inc., priority 2020, published 2023).
“And” between values parts separate entries of the source, which are not always exact repeats. Identical values can stand only once. Where a SMILES comes first, the peptide text is derived from it. [ ]: non-standard residue; d: D form. Hyp = O=C(O)[C@@H]1C[C@@H](O)CN1

Tested on: IL-4
Assay: Example 9 Luminex, LPS hPBMCs: IL-4
Type: cell-based, human
Description: Treatment Human PBMCs were pretreated with YY-101, YDE-011 and YDE-043 or reference compound; Xiidra® at various concentration (ranging from 1 nM to 100 uM) for 2 h before stimulation. An equal volume of 0.5% DMSO was used as a vehicle control. Then, the cells were treated with LPS at 5 ug/ml. The supernatants from treated cells were harvested at 24 h and placed in a 96 well for Luminex cytokine & chemokine profiling using a Luminex 200 multiplex assay (Luminex; R&D system, USA).
The main study arm with triplicate wells per group in a 24-well plate: • 1. Blank • 2. PBMC: 0.5% DMSO • 3. PBMC+LPS (5 ug/ml) • 4. PBMC+YY-101 100 uM • 5. PBMC+YY-101 10 uM • 6. PBMC+YY-101 1 uM • 7. PBMC+YY-101 0.1 uM • 8. PBMC+YY-101 0.01 uM • 9. PBMC+LPS (5 ug/ml)+Xiidra®100 uM • 10. PBMC+LPS (5 ug/ml)+Xiidra® 10 uM • 11. PBMC+LPS (5 ug/ml)+Xiidra® 1 uM • 12. PBMC+LPS (5 ug/ml)+Xiidra®0.1 uM • 13. PBMC+LPS (5 ug/ml)+Xiidra®0.01 uM • 14. PBMC+LPS (5 ug/ml)+Xiidra®0.001 uM • 15. PBMC+LPS (5 ug/ml)+YY-101 100 uM • 16. PBMC+LPS (5 ug/ml)+YY-101 10 uM • 17. PBMC+LPS (5 ug/ml)+YY-101 1 uM • 18. PBMC+LPS (5 ug/ml)+YY-101 0.1 uM • 19. PBMC+LPS (5 ug/ml)+YY-101 0.01 uM • 20. PBMC+LPS (5 ug/ml)+YY-101 0.001 uM • 21. PBMC+LPS (5 ug/ml)+YDE-011 100 uM • 22. PBMC+LPS (5 ug/ml)+YDE-011 10 uM • 23. PBMC+LPS (5 ug/ml)+YDE-011 1 uM • 24. PBMC+LPS (5 ug/ml)+YDE-011 0.1 uM • 25. PBMC+LPS (5 ug/ml)+YDE-011 0.01 uM • 26. PBMC+LPS (5 ug/ml)+YDE-011 0.001 uM • 27. PBMC+LPS (5 ug/ml)+YDE-043 100 uM • 28. PBMC+LPS (5 ug/ml)+YDE-043 10 uM • 29. PBMC+LPS (5 ug/ml)+YDE-043 1 uM • 30. PBMC+LPS (5 ug/ml)+YDE-043 0.1 uM • 31. PBMC+LPS (5 ug/ml)+YDE-043 0.01 uM • 32. PBMC+LPS (5 ug/ml)+YDE-043 0.001 uM
Multiplex assay was used to measure 30 cytokines and chemokines. The 1:2, 1:10 and 1:200 diluted cell supernatant and serial dilution of the standard were dispensed into a 96 well plate at 50 ul/well. Then, the pre-mixed cocktail of antibody-coated magnetic beads was dispensed at 50 ul/well and incubated at room temperature for 2 h in a horizontal orbital microplate shaker at 800±500 rpm. The beads were washed using a magnetic device to prevent loss. The biotin-antibody was dispensed in 50 ul of each well and incubated at room temperature for 1 h in a shaker at 800±500 rpm. After washing, streptavidin-PE was added at 50 ul/well and incubated at room temperature for 30 min in a shaker under the same conditions. Finally, after washing, wash buffer (100 ul/well) was added to the plate and incubated in a shaker for 2 min. The Luminex™ 200 setting were set according to the manufacturer's protocol. The data was calculated with a standard five-parameter logistic nonlinear regression analysis of the data (xPonent software 4.2, USA). The levels of cytokine/chemokine are normalized to the live cell counts (1×10^5 cells/mL) and presented as concentrations per mL (pg/mL or ng/mL).

[1] = PBMC + LPS(5 ug/ml) + test article 0.001 uM, Mean
[2] = PBMC + LPS(5 ug/ml) + test article 0.001 uM, single replicates
[3] = PBMC + LPS(5 ug/ml) + test article 0.01 uM, Mean
[4] = PBMC + LPS(5 ug/ml) + test article 0.01 uM, single replicates
[5] = PBMC + LPS(5 ug/ml) + test article 0.1 uM, Mean
[6] = PBMC + LPS(5 ug/ml) + test article 0.1 uM, single replicates
[7] = PBMC + LPS(5 ug/ml) + test article 1 uM, Mean
[8] = PBMC + LPS(5 ug/ml) + test article 1 uM, single replicates
[9] = PBMC + LPS(5 ug/ml) + test article 10 uM, Mean
[10] = PBMC + LPS(5 ug/ml) + test article 10 uM, single replicates
[11] = PBMC + LPS(5 ug/ml) + test article 100 uM, Mean
[12] = PBMC + LPS(5 ug/ml) + test article 100 uM, single replicates

Structure (SMILES)	Concentration, Bead name: IL-4 [1] [pg/mL]	MFI, Bead name: IL-4 [1]	conc/live cell, Bead name: IL-4 [1] [pg/10^5]	Concentration, Bead name: IL-4 [2]	MFI, Bead name: IL-4 [2]	conc/live cell, Bead name: IL-4 [2]	Concentration, Bead name: IL-4 [3] [pg/mL]	MFI, Bead name: IL-4 [3]	conc/live cell, Bead name: IL-4 [3] [pg/10^5]	Concentration, Bead name: IL-4 [4]	MFI, Bead name: IL-4 [4]	conc/live cell, Bead name: IL-4 [4]	Concentration, Bead name: IL-4 [5] [pg/mL]	MFI, Bead name: IL-4 [5]	conc/live cell, Bead name: IL-4 [5] [pg/10^5]	Concentration, Bead name: IL-4 [6]	MFI, Bead name: IL-4 [6]	conc/live cell, Bead name: IL-4 [6]	Concentration, Bead name: IL-4 [7] [pg/mL]	MFI, Bead name: IL-4 [7]	other results
CC(C)C[C@H](NC(=O)CNC(=O)[C@H](CC(C)C)NC(=O)[C@H](CCC(N)=O)NC(=O)CNC(=O)[C@@H]1C[C@@H](O)CN1)C(=O)N[C@@H](C)C(=O)NCC(=O)N1CCC[C@H]1C(=O)N[C@@H](CCCCN)C(=O)O [YDE-011] (H-[Hyp]GQLGLAGPK-OH)	13.2	−0.5	2.6	18.4 pg/mL and 7.7 pg/mL and 13.6 pg/mL	0.0 and −1.0 and −0.5	4.1 pg/10^5 and 1.3 pg/10^5 and 2.3 pg/10^5	23.7	0.7	4.1	18.4 pg/ml and 26.4 pg/ml (2×)	0.0 and 1.0 (2×)	2.9 pg/10^5 and 4.3 pg/10^5 and 5.2 pg/10^5	22.4	−0.3	2.5	18.4 pg/mL and 26.4 pg/mL	0.0 and −2.0 and 1.0	2.8 pg/10^5 and 0.0 pg/10^5 and 4.6 pg/10^5	18.4	−0.5	conc/live cell, Bead name: IL-4 [7]: 2.4 pg/10^5; Concentration, Bead name: IL-4 [8]: 18.4 pg/mL; MFI, Bead name: IL-4 [8]: 0.0 (2×) and −1.5; conc/live cell, Bead name: IL-4 [8]: 3.3 pg/10^5 and 0.0 pg/10^5 and 3.8 pg/10^5; Concentration, Bead name: IL-4 [9]: 16.8 pg/mL; MFI, Bead name: IL-4 [9]: −0.2; conc/live cell, Bead name: IL-4 [9]: 3.2 pg/10^5; Concentration, Bead name: IL-4 [10]: 18.4 pg/ml (2×) and 13.6 pg/ml; MFI, Bead name: IL-4 [10]: 0.0 (2×) and −0.5; conc/live cell, Bead name: IL-4 [10]: 3.4 pg/10^5 and 2.3 pg/10^5 and 3.9 pg/10^5; Concentration, Bead name: IL-4 [11]: 7.7 pg/mL; MFI, Bead name: IL-4 [11]: −1.2; conc/live cell, Bead name: IL-4 [11]: 0.8 pg/10^5; Concentration, Bead name: IL-4 [12]: 7.7 pg/mL; MFI, Bead name: IL-4 [12]: −1.0 (2×) and −1.5; conc/live cell, Bead name: IL-4 [12]: 1.3 pg/10^5 (2×) and 0.0 pg/10^5
CC(C)C[C@H](NC(=O)[C@H](CCC(N)=O)NC(=O)CNC(=O)[C@@H]1C[C@@H](O)CN1)C(=O)NCC(=O)O [YDE-043] (H-[Hyp]GQLG-OH; N-terminus and C-terminus assumed)	26.0	1.0	5.2	26.4 pg/mL and 33.2 pg/mL and 18.4 pg/mL	1.0 and 2.0 and 0.0	6.0 pg/10^5 and 5.5 pg/10^5 and 4.0 pg/10^5	11.3	−0.7	2.2	7.7 pg/ml (2×) and 18.4 pg/ml	−1.0 (2×) and 0.0	1.7 pg/10^5 and 1.2 pg/10^5 and 3.7 pg/10^5	17.5	0.0	3.3	26.4 pg/mL and 18.4 pg/mL and 7.7 pg/mL	1.0 and 0.0 and −1.0	5.3 pg/10^5 and 3.3 pg/10^5 and 1.4 pg/10^5	26.4	0.2	conc/live cell, Bead name: IL-4 [7]: 3.5 pg/10^5; Concentration, Bead name: IL-4 [8]: 26.4 pg/mL; MFI, Bead name: IL-4 [8]: −1.5 and 1.0 (2×); conc/live cell, Bead name: IL-4 [8]: 0.0 pg/10^5 and 5.5 pg/10^5 and 5.0 pg/10^5; Concentration, Bead name: IL-4 [9]: 14.8 pg/mL; MFI, Bead name: IL-4 [9]: −0.3; conc/live cell, Bead name: IL-4 [9]: 2.7 pg/10^5; Concentration, Bead name: IL-4 [10]: 18.4 pg/ml (2×) and 7.7 pg/ml; MFI, Bead name: IL-4 [10]: 0.0 (2×) and −1.0; conc/live cell, Bead name: IL-4 [10]: 3.5 pg/10^5 and 1.4 pg/10^5 and 3.3 pg/10^5; Concentration, Bead name: IL-4 [11]: 7.7 pg/mL; MFI, Bead name: IL-4 [11]: −1.0; conc/live cell, Bead name: IL-4 [11]: 1.2 pg/10^5; Concentration, Bead name: IL-4 [12]: 7.7 pg/mL; MFI, Bead name: IL-4 [12]: −1.0; conc/live cell, Bead name: IL-4 [12]: 1.2 pg/10^5
